The text below walks through data of patent US11497788B2, “Supramolecular glycosaminoglycans” (Northwestern University, priority 2015, dated 2022).

For one data set, the target named is T1, noggin (Mus musculus, UniProt P97466).
T1 construct: purchased PeproTech; host or cells: E. coli
T1 sequence (P97466 with tags, fused parts or gaps): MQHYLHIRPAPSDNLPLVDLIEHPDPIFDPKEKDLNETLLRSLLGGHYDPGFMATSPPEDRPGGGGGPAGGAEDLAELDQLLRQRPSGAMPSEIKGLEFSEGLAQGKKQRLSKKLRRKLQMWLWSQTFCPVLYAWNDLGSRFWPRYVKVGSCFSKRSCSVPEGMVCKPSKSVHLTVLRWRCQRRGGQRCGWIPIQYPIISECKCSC
As to the kind of experiment: Noggin inhibition of BMP-2 activity in C2C12 cells. The data set is classed as cell-based, murine. The settings on record: during osteoblast differentiation of C2C12. The method, then: (§1) C2C12 Cell Culture: C2C12 mouse myoblasts (ATCC) were maintained in Dulbecco's Modified Eagle's Medium with high glucose and L-glutamine (DMEM, ATCC), supplemented with 100 U/mL of penicillin and 100 μg/mL streptomycin (P/S, Life Technologies) and 10% heat inactivated FBS (Life Technologies), and passaged at 80-90% confluence. Media was changed every 2 days. Passages 3 to 8 were used for experiments. Cells were grown at 37° C., 5% CO2 in a humidified atmosphere. Cells were detached following a 3 minute incubation at 37° C. with 0.05% Trypsin-EDTA (Life Technologies), then resuspended in DMEM (10% FBS). Unless stated otherwise, cells were seeded at 75,000 cells/mL (400 μL/well in a 48-well plate), and allowed to attach for a minimum of 3 hours prior to experiments.
C2C12 Osteoblast Differentiation: PA samples were thermally annealed as described for Cryo-TEM. PA solutions were spun down, pipetted for homogeneous mixing, then diluted to 1 mM with DMEM (no FBS). […] Cells were cultured for 3 days without changing the media, and osteoblast differentiation was assessed.
Alkaline Phosphatase Activity: Alkaline phosphatase (ALP) activity was measured as a marker of osteoblast differentiation (ref. 38; incorporated by reference in its entirety). […] The ALP activity was assessed by reading the OD at 630 nm with Cytation3 microplate reader (BioTek). […]

The test system of data set [1] is BMP-2 signaling in C2C12 cells. As to the kind of experiment: C2C12 osteoblast differentiation with BMP-2, alkaline phosphatase (ALP) activity. The data set is classed as cell-based, mouse. As to conditions: C2C12, BMP-2 75 ng/mL, 3 days. On the procedure: as §1
C2C12 Osteoblast Differentiation: PA samples were thermally annealed as described for Cryo-TEM. PA solutions were spun down, pipetted for homogeneous mixing, then diluted to 1 mM with DMEM (no FBS). In a 1.5 mL microcentrifuge tube, PA solutions were further diluted with DMEM (5% FBS), gently vortexed, and appropriate amounts of GFs (20 μg/mL) were added to yield [PA]=125 μM and [GF]=375 ng/mL. For mixing, the microcentrifuge tube was gently inverted several times by hand. Following, cells were treated by adding a 100 μl, of the PA/GF mixture per well (48-well plate), yielding a final 500 μl, differentiation medium with [PA]=25 μM and [GF]=75 ng/mL. For controls, the initial 5 mM PA solution was substituted with either PBS alone (saline) or heparin in PBS at appropriate concentrations. Cells were cultured for 3 days without changing the media, and osteoblast differentiation was assessed.
Alkaline Phosphatase Activity: Alkaline phosphatase (ALP) activity was measured as a marker of osteoblast differentiation (ref. 38; incorporated by reference in its entirety). On day 3, media was removed, and cells were lysed with a 100 μL, of M-PER Mammalian Protein Extraction Reagent (Life Technologies), supplemented with 1×Halt Protease Inhibitor Cocktail (Thermo Fisher Scientific), for 30 minutes on an orbital shaker. A 20 μL, volume of the cell lysate was incubated with 200 μL, of the QUANTI-Blue colorimetric ALP assay (InvivoGen) for 30 minutes to 2 hours at 37° C., in duplicates. The ALP activity was assessed by reading the OD at 630 nm with Cytation3 microplate reader (BioTek). Data were normalized to the respective endogenous DNA levels using Quant-iT PicoGreen dsDNA Assay Kit (Life Technologies). Two separate experiments with 4 replicates each were averaged for statistical analysis. […]

Data set [2] has as its system ALP and Osteocalcin (OCN) gene expression in C2C12 cells. As to the kind of experiment: Quantitative RT-PCR of ALP and Osteocalcin in C2C12 cells. The data set is classed as cell-based, mouse. As to conditions: relative to heparin or PA nanofibers displaying uncharged GlcNAc; day 3. The method, then:
as §1
C2C12 Osteoblast Differentiation: PA samples were thermally annealed as described for Cryo-TEM. […] Cells were cultured for 3 days without changing the media, and osteoblast differentiation was assessed.
Quantitative RT-PCR: The gene expression levels were determined by real-time, reverse-transcription-PCR using an iQ5 Real-Time PCR Detection System (Bio-Rad). […] To confirm the specificity of the amplified products, melting curves were performed by cooling samples at 55° C. for 30 s and then increasing the temperature to 94° C. at 0.5° C./sec with continuous fluorescence measurement. […]

Data set [3] in a line: Zeta potential measurements. The data set is classed as physicochemical. On the procedure:
Zeta Potential Measurements: Zeta (ζ) potential was measured using a Malvern Zetasizer Nano ZS (n=3). PA samples were thermally annealed as described for Cryo-TEM. Following, PAs were diluted to 0.5 mM in DMEM. PA solutions were water-bath sonicated for 1 min prior to zeta potential measurement. Background reading from DMEM alone was subtracted from the final measurements.

As for “3,4,6S-GlcNAc PA (VVAAEEK) [PA 1, glycosylated peptide amphiphile: Alkyne PA click-conjugated with trisulfated monosaccharide 1]”, in the data set with noggin, the “protection of BMP-2 from noggin antagonist” value is on record as “successfully protected”. Moreover, the “effect on BMP-2 activity / osteoblast differentiation (in words)” value in data set [1] is recorded as “dramatically amplified”. For the same substance, in data set [2], the “ALP mRNA expression” value is recorded as “higher expressions” and the “osteocalcin mRNA expression” value is “higher expressions”. Moreover, in data set [3], the “zeta potential / net charge of nanofibers” value was “highest net negative charge”.
